Assay results published in patent US20160263005A1, “TOPICAL COMPOSITIONS AND METHODS FOR SKIN LIGHTENING” (AVON PRODUCTS, INC., priority 2014, published 2016).

Test system: Human epidermal melanocytes from dark-pigmented skin
Experiment: Melanin content in human epidermal melanocytes after 8 days of incubation (absorbance at 405 nm)
Assay type: cell-based
Details: for % Pigmentation (percent change of melanin absorbance relative to vehicle control): 8 days of incubation; for Effect on pigmentation, in words: at the concentrations of Table 1
Method: The Compound of Formula (II) was examined for its ability to reduce pigmentation in vitro in human melanocytes. Human epidermal melanocytes from dark-pigmented skin were seeded in 6-well dishes and grown using commercially available Medium 254, a sterile, liquid medium prepared with 200 μM calcium chloride for the culture of human epidermal melanocytes, supplemented with 1% Penicillin/Streptomycin and 1% Human Melanocyte Growth Supplement. Corresponding controls were maintained without histamine, Diphenylhydramine HCl and Compound II. Four replicates were tested for each combination. After 8 days of incubation, melanin was collected and processed by washing the wells with 1× phosphate-buffered saline (PBS), followed by addition of 200 μL of 2M NaOH to three of the four replicates, which are then scraped, pooled and boiled at 80° C. for an hour. Melanin absorption was then measured at 405 nm using a spectrophotometer.
A larger (positive or negative) percent change indicates a larger increase or reduction in melanin.

| SMILES | % Pigmentation (percent change of melanin absorbance relative to vehicle control) (0.0001%) [%] | % Pigmentation (percent change of melanin absorbance relative to vehicle control) (0.001%) [%] | Effect on pigmentation, in words | % Pigmentation (percent change of melanin absorbance relative to vehicle control) (5 μM) [%] |
| --- | --- | --- | --- | --- |
| NC(=O)COc1ccc(C(=O)NCc2ccc(CN3CCCCC3)cc2)cc1 [Compound (II)] | −28.30 | −75.25 | effective to reduce pigmentation |  |
| NCCc1c[nH]cn1 [Histamine, reference compound] |  |  | significant increase in pigmentation | 58.75 |
